Where a name gives a salt, the structure may show the parent alone.
How the values were obtained:
in vitro [1] = conditions: African green monkey
SARS-CoV-2 = conditions: cited from earlier work
COVID-19 patients = conditions: cited from earlier work
[2] = test system: IL-6 and CXCL10 expression; assay: Immunomodulatory capacity: IL-6 and CXCL10 in LPS + IFN-γ stimulated HLT myeloid cells; format: cell-based, human; conditions: 20μM, LPS 50 ng/ml + IFN-γ 100 ng/ml, 20h
Experimental: HLT cells were cultured in a round-bottom 96-well plate containing 20 μM of cepharanthine, ergoloid, ciclesonide, hydroxychloroquine, ivermectin, or camostat mesylate alone or in combination with the stimuli LPS (50 ng/ml) and IFN-γ (100 ng/ml). For each patient, a negative control, cells treated with only medium, and a positive control, cells incubated in the presence of LPS and IFN-γ, were included. Immediately, brefeldin A (BD Biosciences) and monensin (BD Biosciences) were added to cells and cultured overnight at 37°C in 5% CO2. Next day, cellular suspensions were stained with the following antibodies: anti-CD11b (FITC, BioLegend), anti-CD69 (PE-CF594, BD Biosciences), anti-CD14 (APC-H7, BD Biosciences), anti-EpCAM (APC, BioLegend), anti-CD3 (BV650, BD Biosciences), anti-CD45 (BV605, BioLegend), and anti-HLA-DR (BV421, BioLegend). Cells were subsequently fixed and permeabilized using the Cytofix/Cytoperm kit (BD Biosciences) and intracellularly stained with anti-IL-6 (PE-Cy7, BioLegend), and anti-CXCL10 (PE, BioLegend). Cell viability was determined using an AQUA viability dye for flow cytometry (LIVE/DEAD fixable AQUA, Invitrogen). After fixation with PBS 2% PFA, cells were acquired in an LSR Fortessa (BD Biosciences), and data were analyzed using the FlowJo v10.6.1 software (TreeStar).

in vitro [3] = conditions: human, CC50 HLT
VeroE6 cells = conditions: for CC50: read-out: CC50 Vero E6, absence of virus
HLT cells = conditions: for CC50: read-out: CC50 HLT, absence of virus
ACE2 expression = assay: Modulation of ACE2 expression in enriched AT-II cells of HLT (flow cytometry); format: cell-based, human; conditions: 20h; for ACE2 expression after anti-inflammatory drugs (in words): 100μM to 0.8μM; for ACE2 expression in enriched AT-II cells after immune stimuli (in words): IL-1β 10 ng/ml, IL-10 and GM-CSF 100 ng/ml, IFN 100 U/ml
Experimental: VeroE6 and lung cells were incubated with five-fold serial dilutions of selected anti-inflammatory compounds (ranging from 100μM to 0.8μM) for 20h. […] For determination of ACE2 expression, the following surface staining antibodies were used: primary goat anti-ACE2 (R&D Systems), anti-CD45 (AF700, BioLegend), anti-EpCAM (APC, BioLegend), and anti-HLA-DR (BV421, BioLegend). For ACE2 detection, cells were then stained with secondary donkey anti-goat IgG (PE, R&D Systems) for 30 min at 4°C. A Fluorescent Minus One control (FMO) without primary anti-ACE2 antibody was used as a control. Cell viability was determined using an AQUA viability dye for flow cytometry (LIVE/DEAD fixable AQUA, Invitrogen). After fixation with PBS 2% PFA, cells were acquired in an LSR Fortessa (BD Biosciences) and analyzed using the FlowJo v10.6.1 software (TreeStar).

[4] = test system: SARS-CoV-2 clinical isolate; format: cell-based
thrombin = conditions: cited from earlier work
[5] = 10µM, ref Hempel et al., Chemical Science 2021

Molecule	CC50 (in vitro [1]; CC50 Vero E6, absence of virus) [µM]	CC50 (in vitro [3]; absence of virus) [µM]	also measured
CN(C)C(=O)COC(=O)Cc1ccc(OC(=O)c2ccc(NC(=N)N)cc2)cc1 [Camostat, Camostat mesylate]			CC50 (in vitro [1]; CC50 Vero E6): > 100 µM; activity in precision-cut lung slices (in words) (SARS-CoV-2; 0.5µM, ref Hoffmann et al, EBiomedicine 2021): non-active; inhibition, donor 1 (SARS-CoV-2; [5]): 40%; inhibition, donor 2 (SARS-CoV-2; [5]): 60%; inhibition in precision-cut lung slices (SARS-CoV-2; 10µM, ref Hoffmann et al, EBiomedicine 2021): approx. 40%; clinical benefit (in words) (COVID-19 patients; COVID-19 patients receiving camostat within the first 48h of admission): no significant benefit; expression of CXCL10 in CD11b+CD14- myeloid cells (in words) [2]: significantly reduced; expression of IL-6 in CD11b+CD14+ myeloid cells (in words) [2]: significantly reduced; CC50 (in vitro [3]): > 100 µM
Cc1ccc(-c2cc(C(F)(F)F)nn2-c2ccc(S(N)(=O)=O)cc2)cc1 [Celecoxib]	13	~100	
COc1ccc2cc1Oc1ccc(cc1)C[C@H]1c3c(cc4c(c3Oc3cc5c(cc3OC)CCN(C)[C@@H]5C2)OCO4)CCN1C [Cepharanthine]	22.3	13.8	CC50 (VeroE6 cells): 22.4 µM; expression of IL-6 in CD11b+CD14+ myeloid cells (in words) [2]: reduced IL-6 production; CC50 (HLT cells): 16.1 µM
CC(C)C(=O)OCC(=O)[C@@]12O[C@H](C3CCCCC3)O[C@@H]1C[C@H]1[C@@H]3CCC4=CC(=O)C=C[C@]4(C)[C@H]3[C@@H](O)C[C@@]12C [Ciclesonide]	> 100	> 100	expression of CXCL10 in CD11b+CD14- myeloid cells (in words) [2]: induced CXCL10 secretion
C[C@]12CCC(=O)C=C1CC[C@@H]1[C@@H]2[C@@H](O)C[C@@]2(C)[C@H]1CC[C@]2(O)C(=O)CO [Cortisol]	> 100	> 100	ACE2 expression after anti-inflammatory drugs (in words) (ACE2 expression): no effect on ACE2 expression
C[C@@H]1C[C@H]2[C@@H]3CCC4=CC(=O)C=C[C@]4(C)[C@@]3(F)[C@@H](O)C[C@]2(C)[C@@]1(O)C(=O)CO [Dexamethasone]	> 100	> 100	28-day mortality (in words) (COVID-19 patients; patients receiving invasive mechanical ventilation): decreased
O=C1C[C@@H](c2ccc(O)c(O)c2)Oc2cc(O)cc(O)c21 [Eriodictyol]	> 100	> 100	
CC1(C)[C@@H](O[C@H]2O[C@H](C(=O)O)[C@@H](O)[C@H](O)[C@H]2O[C@@H]2O[C@H](C(=O)O)[C@@H](O)[C@H](O)[C@H]2O)CC[C@]2(C)[C@H]3C(=O)C=C4[C@@H]5C[C@@](C)(C(=O)O)CC[C@]5(C)CC[C@@]4(C)[C@]3(C)CC[C@@H]12 [Glycyrrhizin]	> 100	> 100	
Oc1ccc(CC2NCCc3cc(O)c(O)cc32)cc1 (stereo not drawn) [Higenamine, Higenamine hydrochloride]	> 100	> 100	
CCN(CCO)CCCC(C)Nc1ccnc2cc(Cl)ccc12 (stereo not drawn) [Hydroxychloroquine]	> 100	> 100	viral replication of replication-competent SARS-CoV-2 in HLT cells (in words) [4]: effective; cytotoxicity in VeroE6 (in words) (VeroE6 cells; up to 100μM): no apparent cytotoxicity; effectiveness as a treatment for COVID-19 (in words) (COVID-19 patients; clinical trials): failed to show effectiveness; cytotoxicity in HLT (in words) (HLT cells; up to 100μM): no apparent cytotoxicity
Cc1cc(O)c2c(=O)c3c(O)cc(O)c4c5c(O)cc(O)c6c(=O)c7c(O)cc(C)c8c1c2c(c34)c(c78)c65 [Hypericin]	4.8	0.14	
CC(C)Cc1ccc(C(C)C(=O)O)cc1 (stereo not drawn) [Ibuprofen]	> 100	> 100	ACE2 expression after anti-inflammatory drugs (in words) (ACE2 expression): no effect on ACE2 expression
O=C1Nc2ccccc2/C1=C1/Nc2ccccc2C1=O [Indirubin]			CC50 (in vitro [1]; CC50 Vero E6): > 100 µM; CC50 (in vitro [3]): > 100 µM
CCCCCCCCCCCC(=O)O [Lauric acid]			CC50 (VeroE6 cells): > 100 µM; CC50 (HLT cells): > 100 µM
CC1(C)Cc2c(-c3ccccc3)c(-c3ccc(Cl)cc3)c(CC(=O)O)n2C1 [Licofelone]	> 100	~53.6	
O=c1cc(-c2ccc(O)c(O)c2)oc2cc(O)cc(O)c12 [Luteolin]	> 100	> 100	
CN(C)C(=N)N=C(N)N [Metformin]	> 100	> 100	
CCCCCCCCCC(=O)OCC(O)CO (stereo not drawn) [Monocaprin]			CC50 (VeroE6 cells): > 100 µM; CC50 (HLT cells): > 100 µM
CCCCCCCCCCCC(=O)OCC(O)CO (stereo not drawn) [Monolaurin]			CC50 (VeroE6 cells): > 100 µM; CC50 (HLT cells): > 100 µM
O=c1c(O)c(-c2cc(O)c(O)c(O)c2)oc2cc(O)cc(O)c12 [Myricetin]	> 100	> 100	IC50 (thrombin): 56 µM

Molecule	CC50 (in vitro [1]; CC50 Vero E6, absence of virus) [µM]	CC50 (in vitro [3]; absence of virus) [µM]	also measured
O=C1CN(/N=C/c2ccc([N+](=O)[O-])o2)C(=O)N1 [Nitrofurantoin]			CC50 (in vitro [1]; CC50 Vero E6): > 100 µM; CC50 (in vitro [3]): > 100 µM
Cc1cccn2c(=O)c(-c3nnn[nH]3)cnc12 [Pemirolast, Pemirolast potassium]	> 100	> 100	
[H]/N=C(/N)N/C(=N/[H])NCCc1ccccc1 [Phenformin]	> 100	> 100	
C[C@]12C=CC(=O)C=C1CC[C@@H]1[C@@H]2C(=O)C[C@@]2(C)[C@H]1CC[C@]2(O)C(=O)CO [Prednisone]	> 100	> 100	ACE2 expression after anti-inflammatory drugs (in words) (ACE2 expression): no effect on ACE2 expression
NC(=O)[C@@H]1CCCN1C(=O)[C@H](Cc1c[nH]cn1)NC(=O)[C@@H]1CCC(=O)N1 [Protilerin]			CC50 (VeroE6 cells): > 100 µM; CC50 (HLT cells): > 100 µM
O=c1c(O)c(-c2ccc(O)c(O)c2)oc2cc(O)cc(O)c12 [Quercetin]	> 100	> 100	
CCCCCCCCCCCCOS(=O)(=O)[O-].[Na+] [SLS, Sodium lauryl sulfate]			CC50 (VeroE6 cells): 87 µM; CC50 (HLT cells): ~83.2 µM
N[C@@H](CC(=O)N1CCn2c(nnc2C(F)(F)F)C1)Cc1cc(F)c(F)cc1F [Sitagliptin]	> 100	> 100	
Cc1ccnc(NS(=O)(=O)c2ccc(N)cc2)n1 [Sulfamerazine]	> 100	> 100	
CC1=C(CC(=O)O)c2cc(F)ccc2/C1=C\c1ccc([S+](C)[O-])cc1 (stereo not drawn) [Sulindac]	> 100	> 100	
C[C@]1(Cn2ccnn2)[C@H](C(=O)O)N2C(=O)C[C@H]2S1(=O)=O [Tazobactam]	> 100	> 100	
C[C@H](O)[C@H](O)[C@H]1CNc2nc(N)[nH]c(=O)c2N1 [Tetrahydrobiopterin, Tetrahydrobiopterin dihydrochloride]	> 100	> 100	
CC(C)[C@H](N)C(=O)OCCOCn1cnc2c(=O)[nH]c(N)nc21 [Valaciclovir]	> 100	> 100	
N#C[C@@H]1CCCN1C(=O)CNC12CC3CC(CC(O)(C3)C1)C2 [Vidagliptin, Vildagliptin]	> 100	> 100	
Ergoloid mesylates			CC50 (VeroE6 cells): 18.7 µM; expression of cytokines in CD11b+CD14+ myeloid cells (in words) [2]: significantly reduced the expression of cytokines; cell toxicity in HLT cells (HLT cells; 20 μM, 48h): > 60%; CC50 (HLT cells): ~100 µM
GM-CSF			ACE2 expression in enriched AT-II cells after immune stimuli (in words) (ACE2 expression): did not impact ACE2 protein production
IL-1β			ACE2 expression in enriched AT-II cells after immune stimuli (in words) (ACE2 expression): decreased the fraction of AT-II cells expressing ACE2
Ivermectin			CC50 (VeroE6 cells): 20.2 µM; proportion of PCR-positive patients (in words) (COVID-19 patients; seven days after treatment): failed to show a reduction; expression of cytokines in the HLT inflammation model (in words) [2]: did not affect the expression of cytokines; CC50 (HLT cells): ~100 µM
IL-10 (protein, UniProt P22301 19-178, looked up) Interleukin-10: SPGQGTQSENSCTHFPGNLPNMLRDLRDAFSRVKTFFQMKDQLDNLLLKESLLEDFKGYLGCQALSEMIQFYLEEVMPQAENQDPDIKAHVNSLGENLKTLRLRLRRCHRFLPCENKSKAVEQVKNAFNKLQEKGIYKAMSEFDIFINYIEAYMTMKIRN			ACE2 expression in enriched AT-II cells after immune stimuli (in words) (ACE2 expression): did not impact ACE2 protein production

From paper PMC8791477, “Evaluation of SARS-CoV-2 entry, inflammation and new therapeutics in human lung tissue cells” (PLoS Pathogens, 2022)
